According to PubChem BioAssay (NCI):
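All cell lines were grown in 96-well plates and treated with compound for 48 hours. Definition used: TGI = concentration required for complete inhibition of growth.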

Legend:
Experiment in all cases: NCI tumour cell line growth inhibition, 48 h
ACHN renal = system: ACHN renal
HT29 colon = system: HT29 colon
K-562 leukemia = system: K-562 leukemia
MALME-3M melanoma = system: MALME-3M melanoma
NCI-H23 lung = system: NCI-H23 lung
OVCAR-8 ovarian = system: OVCAR-8 ovarian
SK-MEL-5 melanoma = system: SK-MEL-5 melanoma
SN12C renal = system: SN12C renal
SR leukemia = system: SR leukemia
UO-31 renal = system: UO-31 renal
MDA-MB-231 breast = system: MDA-MB-231 breast
BT-549 breast = system: BT-549 breast

Compound | TGI (ACHN renal) [µM] | TGI (HT29 colon) [µM] | TGI (K-562 leukemia) [µM] | TGI (MALME-3M melanoma) [µM] | TGI (NCI-H23 lung) [µM] | TGI (OVCAR-8 ovarian) [µM] | TGI (SK-MEL-5 melanoma) [µM] | TGI (SN12C renal) [µM] | TGI (SR leukemia) [µM] | TGI (UO-31 renal) [µM] | TGI (MDA-MB-231 breast) [µM] | TGI (BT-549 breast) [µM]
CC(C)NC(C)Cc1ccccc1 (stereo not given) | > 100 | > 100 | > 100 | > 100 | > 100 | > 100 | > 100 | > 100 | > 100 | > 100 |  | 
O=[N+]([O-])C(=C1Nc2ccccc2N1)C(Cl)=C(Cl)Cl | > 100 | > 100 | > 100 | > 100 | > 100 | > 100 | > 100 | > 100 | > 100 | > 100 | 90.3 | 
CCOC(=O)Cn1nc2ccc(Nc3nc4ccccc4nc3C(=O)OCC)cc2n1 | > 100 | > 100 | > 100 | > 100 | > 100 | > 100 | > 100 | > 100 | > 100 | > 100 |  | > 100
N#Cc1c(N2CCOCC2)ncn(-c2ccccc2)c1=O | > 100 |  | > 100 |  | > 100 | > 100 | > 100 | > 100 | > 100 | > 100 |  | > 100
CN1N=C(c2ccncc2)OC1c1ccc(Cl)c(Cl)c1 (stereo not given) | > 100 | > 100 | > 100 | > 100 | > 100 | > 100 | > 100 | > 100 |  | > 100 | > 100 | 
CCCCCCCCCCCCCCCCCCNc1ccn(C2OC(CO)C(OP(=O)(O)OCC3CCC(n4ccc(N)nc4=O)O3)C2O)c(=O)n1 (stereo not given) | > 100 | > 100 |  | 94.8 | > 100 | > 100 | > 100 | > 100 |  | 56.7 | > 100 | 89.8
COc1cc(CNC(=O)CCCCCCCC/C=C/Br)ccc1O | > 10 | > 10 | > 10 | > 10 | > 10 | > 10 | > 10 | > 10 | > 10 | > 10 | > 10 | 
CC(C)(C)SC1=CCC[C@@H](P(=O)(c2ccccc2)c2ccccc2)[C@@H]2CCC[C@@H]12 | 30.6 | 28.3 | 51.6 | 36.3 | 33.6 | 39.2 | 32.8 | 29.3 | 43.6 | 30.2 |  | 32.3
CC(C)(C)C1CCC2c3c([nH]c4ccccc34)C3C(=O)N(c4ccc(Br)cc4)C(=O)C3C2C1 (stereo not given) | 35.7 | 44.3 | 43.5 | > 100 | 38.1 | 42.9 | 62.2 | 27.6 |  | 27.2 |  | 
Cc1cc(S(=O)(=O)Nc2nc(N)n(C)n2)c(S)cc1Cl | > 10 | > 10 | > 10 | > 10 | > 10 | > 10 | > 10 | > 10 |  | > 10 | > 10 | > 10
COC(=O)[C@]1(c2cc3ccccc3[nH]2)CC2CN(CC(=O)N(C)OC)C1C1OC(C)(C)OC21 (stereo not given in full) | > 100 | > 100 | > 100 | > 100 | > 100 | > 100 | > 100 | > 100 |  | > 100 | > 100 | > 100
Nc1nc(=O)n(C2OC(CO)C(O)C2O)cc1F (stereo not given) |  | > 100 | > 100 |  | > 100 | > 100 | > 100 | > 100 |  | > 100 |  | 
COc1ccc(C2=C(OC(C)=O)c3cccn3-c3ccccc3S2)cc1 |  | > 10 |  | > 10 | 7.73 | > 10 | > 10 | > 10 | > 10 |  | > 10 | 
C[n+]1c2ccccc2c(NC(CCC(N)=O)C(=O)O)c2ccccc21 (stereo not given) | > 100 | > 100 | > 100 | > 100 | > 100 | > 100 | > 100 | > 100 | > 100 | > 100 |  | 
CC(C)(C)OC(=O)C1/C(=C/CO)CN1C(=O)OC(C)(C)C (stereo not given) | > 100 | > 100 | > 100 | > 100 | > 100 | > 100 | > 100 | > 100 | > 100 | > 100 |  | > 100
COc1cc2cc(C(=O)N3CC(COS(C)(=O)=O)c4c3cc([N+](=O)[O-])c3ccccc43)[nH]c2c(OC)c1OC (stereo not given) | > 31.6 | > 31.6 | > 100 |  | > 31.6 | > 31.6 |  | > 100 |  | > 31.6 | > 100 | > 31.6
CCOc1ccc(N=Cc2cc(OC)c(OC)c(OC)c2)cc1 | > 100 | > 100 | > 100 | > 100 | > 100 | > 100 | > 100 | > 100 |  | > 100 |  | 
C(/COc1cccnc1)=N\NC1=NCCN1 | > 100 | > 100 | > 100 | > 100 | > 100 | > 100 | > 100 | > 100 | > 100 | > 100 |  | 
c1ccc(C2CC(N3CCOCC3)=Nc3ccccc3N2)cc1 (stereo not given) | > 100 | > 100 | > 100 | > 100 | > 100 | > 100 | > 100 | > 100 |  | > 100 | > 100 | > 100
Cc1ccc2c(c1)NC(=O)C(N=[N+]=[N-])(c1ccccc1)C2=O (stereo not given) | > 100 | 43.9 | 56.6 | 71.6 | 45.9 | 58.7 | 47.4 | 48.2 | 56.7 | 90.7 |  | 
Nc1ncnc2c1ncn2CC(OCP(=O)(O)O)Oc1ccccc1 (stereo not given) | > 100 |  | > 100 |  |  |  | > 100 | > 100 |  | > 100 | > 100 | 
